Measured values published in US11753410B2, “Hormone receptor modulators for treating metabolic mutagenic and fibrotic conditions and disorders” (priority 2017, dated 2023).

Tests used:
[1] = biological target: T1, human Farnesoid X receptor ligand-binding domain/Gal4 DNA binding domain chimera (Homo sapiens, UniProt Q96RI1); experiment: Cell-based assay of FXR activation (FXR-UAS-bla HEK 293T beta-lactamase reporter); conditions: for Emax: HEK-293T, read-out: Cellular % Efficacy
T1 construct: host or cells: FXR-UAS-bla HEK 293T (CellSensor UAS-bla HEK 293T)
T1 sequence (Q96RI1 262-486 limits assumed): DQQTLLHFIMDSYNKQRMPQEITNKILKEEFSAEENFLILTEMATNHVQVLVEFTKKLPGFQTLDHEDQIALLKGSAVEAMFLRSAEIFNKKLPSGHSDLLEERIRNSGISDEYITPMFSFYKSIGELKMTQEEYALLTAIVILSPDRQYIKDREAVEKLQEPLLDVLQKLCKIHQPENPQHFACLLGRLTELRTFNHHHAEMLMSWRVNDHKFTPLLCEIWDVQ
Method: FXR activation was measured using a cell line and procedure obtained from Life Technologies (Cat #K1691). […] Activation of FXR by bound ligands results in transcriptional activation of the beta-lactamase reporter gene, which is detected via assay of beta-lactamase activity.
Cells are harvested and diluted into assay medium containing phenol red-free DMEM supplemented with 2% Charcoal-stripped FBS, pyruvate, non-essential amino acids. Cells are then transferred to a 384 well assay plate. Test compounds are dissolved in DMSO and a 3-fold serial dilution series is generated, then further diluted into assay medium. Compounds in assay medium are added to cells in the 384 well plate and allowed to incubate 16 h at 37 C in the presence of 5% CO2.
A FRET-based […] (CCF4) is loaded into cells as its acetomethoxy ester. Intracellular esterases liberate free CCF4, a cephalosporin core linking 7-hydroxycoumarin to fluorescein. In the presence of beta-lactamase activity produced in the presence of FXR agonists, cleavage of CCF4 spatially separates the two dyes and disrupts FRET, so that exciting the coumarin at 409 nm now produces a blue fluorescence signal at 447 nm. The change in FRET signal is plotted against the test compound concentration and fit to a 3-parameter logistical equation.

[2] = biological target: T2, ligand binding domain of human FXR (Homo sapiens, UniProt Q96RI1); experiment: biochemical; conditions: for Emax: extent of activation relative to GW4064, read-out: Ligand Binding % Efficacy; for EC50: −log EC50, concentration required to produce 50% activation, FRET 520 nm/495 nm, 1 hour at room temperature, read-out: Ligand Binding pEC50 (converted)
T2 construct: purchased Thermofisher (LanthaScreen) PV4833
T2 sequence (Q96RI1 262-486 limits assumed): T1 sequence (Q96RI1 262-486 limits assumed)

Row | Structure (SMILES) | EC50 [1] [nM] | Emax [1] [%] | Emax [2] [%] | EC50 [2] [nM]
1 | O=C(O)c1cc(O[C@H]2CCOC2)c2nc(N3C[C@@H]4C[C@H]3C[C@H]4OCc3c(C4CC4)nnn3-c3c(Cl)cccc3Cl)sc2c1 [Compound I-61, 2-[(1S,4S,5R)-5-{[4-cyclopropyl-1-(2,6-dichlorophenyl)-1H-1,2,3-triazol-5-yl]methoxy}-2-azabicyclo[2.2.1]heptan-2-yl]-4-[(3S)-oxolan-3-yloxy]-1,3-benzothiazole-6-carboxylic acid] | 25.1 | 107 | 158 | 3.98
2 | O=C(NS(=O)(=O)C1CCOCC1)c1ccc(N2C[C@@H]3C[C@H]2C[C@H]3OCc2c(C3CC3)cnn2-c2c(Cl)cccc2Cl)cc1 [Compound I-20, 4-[(1S,4S,5R)-5-{[4-cyclopropyl-1-(2,6-dichlorophenyl)-1H-pyrazol-5-yl]methoxy}-2-azabicyclo[2.2.1]heptan-2-yl]-N-(oxane-4-sulfonyl)benzamide] | 0.794 | 102 | 147 | 3.16
3 | O=C(O)c1cc(OC2CC2)c2nc(N3C[C@@H]4C[C@H]3C[C@H]4OCc3c(C4CC4)cnn3-c3c(Cl)cccc3Cl)sc2c1 [Compound I-31, 4-cyclopropoxy-2-[(1S,4S,5R)-5-{[4-cyclopropyl-1-(2,6-dichlorophenyl)-1H-pyrazol-5-yl]methoxy}-2-azabicyclo[2.2.1]heptan-2-yl]-1,3-benzothiazole-6-carboxylic acid] | 0.2 | 110 | 116 | 1.58
4 | O=C(O)CCc1ccc(N2C[C@@H]3C[C@H]2C[C@H]3OCc2c(C3CC3)cnn2-c2c(Cl)cccc2Cl)cc1F [Compound I-34, 3-{4-[(1S,4S,5R)-5-{[4-cyclopropyl-1-(2,6-dichlorophenyl)-1H-pyrazol-5-yl]methoxy}-2-azabicyclo[2.2.1]heptan-2-yl]-2-fluorophenyl}propanoic acid] | 10 | 98 | 144 | 100
5 | O=C(O)c1cc(F)c2nc(N3C[C@@H]4C[C@H]3C[C@H]4OCc3c(C4CC4)cnn3-c3c(Cl)cccc3Cl)sc2c1 [Compound I-30, 2-[(1S,4S,5R)-5-{[4-cyclopropyl-1-(2,6-dichlorophenyl)-1H-pyrazol-5-yl]methoxy}-2-azabicyclo[2.2.1]heptan-2-yl]-4-fluoro-1,3-benzothiazole-6-carboxylic acid] | 1.58 | 106 | 151 | 15.8
6 | O=C(O)CCc1ccc(N2C[C@@H]3C[C@H]2C[C@H]3OCc2c(C3CC3)cnn2-c2c(Cl)cccc2Cl)c(F)c1 [Compound I-33, 3-{4-[(1S,4S,5R)-5-{[4-cyclopropyl-1-(2,6-dichlorophenyl)-1H-pyrazol-5-yl]methoxy}-2-azabicyclo[2.2.1]heptan-2-yl]-3-fluorophenyl}propanoic acid] | 3.98 | 99 | 132 | 39.8
7 | O=C(O)c1cc(OC(F)(F)F)c2nc(N3C[C@@H]4C[C@H]3C[C@H]4OCc3c(-c4c(Cl)cccc4Cl)nnn3C3CC3)sc2c1 [Compound I-63, 2-[(1S,4S,5R)-5-{[1-cyclopropyl-4-(2,6-dichlorophenyl)-1H-1,2,3-triazol-5-yl]methoxy}-2-azabicyclo[2.2.1]heptan-2-yl]-4-(trifluoromethoxy)-1,3-benzothiazole-6-carboxylic acid] | 12.6 | 103 | 180 | 12.6
8 | CS(=O)(=O)CCNC(=O)c1ccc(N2C[C@@H]3C[C@H]2C[C@H]3OCc2c(-c3c(Cl)cccc3Cl)cnn2C2CC2)cc1F [Compound I-45, 4-[(1S,4S,5R)-5-{[1-cyclopropyl-4-(2,6-dichlorophenyl)-1H-pyrazol-5-yl]methoxy}-2-azabicyclo[2.2.1]heptan-2-yl]-2-fluoro-N-(2-methanesulfonylethyl)benzamide] | 1000 | 92 | 57 | 398
9 | O=C(O)c1cc([C@@H]2CCOC2)c2nc(N3C[C@@H]4C[C@H]3C[C@H]4OCc3c(-c4c(Cl)cccc4Cl)nnn3C3CC3)sc2c1 (single isomer, unassigned) [Compound I-66] | 15.8 | 110 | 140 | 15.8
10 | O=C(NS(=O)(=O)CC1CCOC1)c1ccc(N2C[C@@H]3C[C@H]2C[C@H]3OCc2c(C3CC3)cnn2-c2c(Cl)cccc2Cl)cc1 (stereo partly drawn) [Compound I-24, 4-((1S,4S,5R)-5-((4-cyclopropyl-1-(2,6-dichlorophenyl)-1H-pyrazol-5-yl)methoxy)-2-azabicyclo[2.2.1]heptan-2-yl)-N-(((tetrahydrofuran-3-yl)methyl)sulfonyl)benzamide] | 2.51 | 107 | 164 | 3.16
11 | O=C(O)c1cc(C2CCC2)c2nc(N3C[C@@H]4C[C@H]3C[C@H]4OCc3c(-c4c(Cl)cccc4Cl)nnn3C3CC3)sc2c1 [Compound I-68, 4-cyclobutyl-2-[(1S,4S,5R)-5-{[1-cyclopropyl-4-(2,6-dichlorophenyl)-1H-1,2,3-triazol-5-yl]methoxy}-2-azabicyclo[2.2.1]heptan-2-yl]-1,3-benzothiazole-6-carboxylic acid] | 1.58 | 106 | 178 | 3.98
12 | O=C(O)c1ccc(N2C[C@@H]3C[C@H]2C[C@H]3OCc2c(C3CC3)cnn2-c2c(F)cccc2F)cc1F [Compound I-10, 4-[(1S,4S,5R)-5-{[4-cyclopropyl-1-(2,6-difluorophenyl)-1H-pyrazol-5-yl]methoxy}-2-azabicyclo[2.2.1]heptan-2-yl]-2-fluorobenzoic acid] | 31.6 | 118 | 164 | 158
13 | O=C(O)c1ccc(N2C[C@@H]3C[C@H]2C[C@H]3OCc2c(-c3c(Cl)cccc3Cl)cnn2C2CC2)cc1 [Compound I-41, 4-[(1S,4S,5R)-5-{[1-cyclopropyl-4-(2,6-dichlorophenyl)-1H-pyrazol-5-yl]methoxy}-2-azabicyclo[2.2.1]heptan-2-yl]benzoic acid] | 794 | 117 | 96 | 316
14 | O=C(O)CCc1ccc(N2C[C@@H]3C[C@H]2C[C@H]3OCc2c(C3CC3)nnn2-c2c(Cl)cccc2Cl)cc1F [Compound I-55, 3-{4-[(1S,4S,5R)-5-{[4-cyclopropyl-1-(2,6-dichlorophenyl)-1H-1,2,3-triazol-5-yl]methoxy}-2-azabicyclo[2.2.1]heptan-2-yl]-2-fluorophenyl}propanoic acid] | 15.8 | 91 | 147 | 63.1
15 | O=C(O)c1cc(O[C@@H]2CCOC2)c2nc(N3C[C@@H]4C[C@H]3C[C@H]4OCc3c(C4CC4)nnn3-c3c(Cl)cccc3Cl)sc2c1 [Compound I-62, 2-[(1S,4S,5R)-5-{[4-cyclopropyl-1-(2,6-dichlorophenyl)-1H-1,2,3-triazol-5-yl]methoxy}-2-azabicyclo[2.2.1]heptan-2-yl]-4-[(3R)-oxolan-3-yloxy]-1,3-benzothiazole-6-carboxylic acid] | 25.1 | 106 | 158 | 3.98
16 | O=C(O)c1cc([C@H]2CCOC2)c2nc(N3C[C@@H]4C[C@H]3C[C@H]4OCc3c(-c4c(Cl)cccc4Cl)cnn3C3CC3)sc2c1 (single isomer, unassigned) [Compound I-51] | 158 | 100 | 96 | 251
17 | O=C(O)CCc1ccc(N2C[C@@H]3C[C@H]2C[C@H]3OCc2c(-c3c(Cl)cccc3Cl)cnn2C2CC2)cc1 [Compound I-43, 3-{4-[(1S,4S,5R)-5-{[1-cyclopropyl-4-(2,6-dichlorophenyl)-1H-pyrazol-5-yl]methoxy}-2-azabicyclo[2.2.1]heptan-2-yl]phenyl}propanoic acid] | < 31.6 | – | – | < 316
18 | O=C(O)CCc1ccc(N2C[C@@H]3C[C@H]2C[C@H]3OCc2c(C3CC3)nnn2-c2c(Cl)cccc2Cl)c(F)c1 [Compound I-54, 3-{4-[(1S,4S,5R)-5-{[4-cyclopropyl-1-(2,6-dichlorophenyl)-1H-1,2,3-triazol-5-yl]methoxy}-2-azabicyclo[2.2.1]heptan-2-yl]-3-fluorophenyl}propanoic acid] | 12.6 | 100 | 152 | 20
19 | O=C(O)c1ccc(N2C[C@@H]3C[C@H]2C[C@H]3OCc2c(-c3c(Cl)cccc3Cl)nnn2C2CC2)cc1 [Compound I-70, 4-[(1S,4S,5R)-5-{[1-cyclopropyl-4-(2,6-dichlorophenyl)-1H-1,2,3-triazol-5-yl]methoxy}-2-azabicyclo[2.2.1]heptan-2-yl]benzoic acid] | 39.8 | 106 | 155 | 63.1
